This is an account of results in patent US11267807B2, “Use of small molecule inhibitors to KLF10 for modulation of T regulatory cells and cancer immunotherapy” (THE BRIGHAM AND WOMEN'S HOSPITAL, INC., priority 2015, dated 2022).

A word on the inhibition: it is the percentage by which the read-out fell short of the control. As usually defined, the IC50 is the midpoint of a concentration-inhibition curve.

In experiment [1] the target is T1, KLF10 (Homo sapiens, UniProt Q13118).
T1 sequence (Q13118 1-480): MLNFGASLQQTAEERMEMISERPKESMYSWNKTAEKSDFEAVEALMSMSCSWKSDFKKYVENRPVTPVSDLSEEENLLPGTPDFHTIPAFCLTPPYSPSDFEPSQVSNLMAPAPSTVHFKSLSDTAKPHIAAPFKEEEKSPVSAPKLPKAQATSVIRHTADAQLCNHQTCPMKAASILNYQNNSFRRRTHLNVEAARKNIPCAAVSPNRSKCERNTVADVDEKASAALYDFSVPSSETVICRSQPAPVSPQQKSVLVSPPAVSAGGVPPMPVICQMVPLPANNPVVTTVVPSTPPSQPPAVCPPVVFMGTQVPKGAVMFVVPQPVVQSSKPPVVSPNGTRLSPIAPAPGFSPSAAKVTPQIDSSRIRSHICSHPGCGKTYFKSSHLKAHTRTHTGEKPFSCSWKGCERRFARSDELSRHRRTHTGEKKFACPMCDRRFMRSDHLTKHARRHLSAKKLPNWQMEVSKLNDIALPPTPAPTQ
The experiment is described as follows: KLF10 CACCC-luciferase reporter assay in transfected HeLa cells. The class given is cell-based. Further details: host or cells: HeLa. The conditions noted are these: for inhibition at 100 µM: HeLa. (In general: In a reporter assay the amount or activity of a reporter protein is the signal.)

Another experiment concerns the target T2, GLI (Homo sapiens, UniProt P08151).
T2 construct: host or cells: HEK293 (transfected)
T2 sequence (P08151 1-1106): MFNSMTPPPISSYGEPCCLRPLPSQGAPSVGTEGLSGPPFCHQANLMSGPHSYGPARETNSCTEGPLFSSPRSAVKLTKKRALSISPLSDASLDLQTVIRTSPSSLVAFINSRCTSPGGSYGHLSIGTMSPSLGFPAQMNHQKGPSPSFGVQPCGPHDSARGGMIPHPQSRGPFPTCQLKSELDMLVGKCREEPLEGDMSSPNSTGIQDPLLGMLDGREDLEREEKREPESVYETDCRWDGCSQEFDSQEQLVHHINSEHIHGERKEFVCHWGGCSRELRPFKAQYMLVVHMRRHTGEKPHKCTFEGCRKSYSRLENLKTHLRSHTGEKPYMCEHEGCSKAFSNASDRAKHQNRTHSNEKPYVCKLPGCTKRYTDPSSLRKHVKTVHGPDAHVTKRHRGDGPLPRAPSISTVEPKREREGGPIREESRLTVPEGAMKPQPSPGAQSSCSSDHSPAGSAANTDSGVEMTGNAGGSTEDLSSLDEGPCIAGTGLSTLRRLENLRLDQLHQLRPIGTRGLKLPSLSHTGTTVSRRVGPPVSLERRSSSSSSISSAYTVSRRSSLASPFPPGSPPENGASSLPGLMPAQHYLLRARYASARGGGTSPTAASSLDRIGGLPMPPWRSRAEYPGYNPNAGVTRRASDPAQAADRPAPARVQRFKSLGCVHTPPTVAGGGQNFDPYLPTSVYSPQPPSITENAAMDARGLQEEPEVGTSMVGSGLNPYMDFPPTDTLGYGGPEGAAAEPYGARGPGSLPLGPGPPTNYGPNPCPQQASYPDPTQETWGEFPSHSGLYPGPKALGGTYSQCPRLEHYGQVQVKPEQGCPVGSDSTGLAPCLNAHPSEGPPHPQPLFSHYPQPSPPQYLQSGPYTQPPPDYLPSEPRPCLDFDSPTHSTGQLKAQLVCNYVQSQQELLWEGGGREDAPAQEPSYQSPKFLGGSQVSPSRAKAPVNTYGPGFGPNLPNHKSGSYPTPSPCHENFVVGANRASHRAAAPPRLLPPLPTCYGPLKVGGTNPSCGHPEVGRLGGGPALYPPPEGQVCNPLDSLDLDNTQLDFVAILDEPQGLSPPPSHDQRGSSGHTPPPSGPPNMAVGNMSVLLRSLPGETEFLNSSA
The conditions noted are these: 30 μM, transfected HEK293 cells; cited from earlier work.

The subject of the next experiment is CD4+CD25− T cells. The experiment is described as follows: T regulatory cell differentiation assay, flow cytometry. The class given is cell-based, mouse. The conditions noted are these: 3 days culture, FIG. 4A-4C. Here is the method:
Mouse spleens were meshed through a cell strainer into Phosphate Buffered Saline (PBS) with 2% Fetal Bovine Serum and 1% Penicillin/Streptomycin, and cells were collected by spinning at 1000 rpm for 10 min. CD4+CD25− T cells were purified by using CD4+CD25+ T cell isolation kit (Miltenyi Biotec) according to the manufacturer's instructions. Briefly, cells were incubated with Biotin-conjugated antibodies, followed by anti-biotin microbeads and PE-conjugated anti-CD25 antibody for 30 min on ice with gentle shaking. Mixtures were loaded into pre-washed LD columns in the Magnetic field, and CD4+ cells were collected and then incubated with anti-PE microbeads. Mixtures were loaded into pre-washed MS columns in the magnetic field to collect CD4+CD25− T cells (non-bound cell fraction). Cells were plated into 12-well plates pre-coated with 1 μg/mL anti-CD3e (eBioscience) overnight in RPMI1640 Medium with 10% FBS, 1% Penicillin/Streptomycin, 1% non-essential amino acids, and 2-mercaptoethanol, 1 μg/mL anti-CD28 (BD Biosciences), and 1 ng/mL TGF-β1 (Peprotech). Cells were cultured at 37° C. up to five days for the conversion of CD4+CD25− T cells to CD4+CD25+ T regs. For flow cytometry, cells were stained with anti-mouse CD25 Alexa Fluo®488 (eBioscience) and analyzed by using multicolor FACS (ARIA; BD Biosciences) as previously described.^12

For another experiment, the system named is Foxp3. The experiment can be described thus: Foxp3 expression by qPCR during conversion of CD4+CD25− T cells to T regs. The class given is cell-based, mouse. The conditions noted are these: 50 μM, FIG. 5. The method, then:
Taken together, these observations indicate that these compounds effectively suppress the KLF10 target gene Foxp3, a critical regulator of T reg cell differentiation.^28
T cells were suspended in TRIzol® reagent (Invitrogen), and total RNA was isolated according to the manufacturer's instructions. Reverse transcriptions were performed by using the Reverse Transcription Kit and QuantiTect SYBR Green reverse transcription-PCR kit from Qiagen for quantitative real-time quantitative PCR analysis on a Mx3000P real-time PCR system (Stratagene) following the manufacturer's instructions. Primers were used to detect mouse FoxP3 as previously described.^12
Mouse spleens were meshed through a cell strainer into Phosphate Buffered Saline (PBS) with 2% Fetal Bovine Serum and 1% Penicillin/Streptomycin, and cells were collected by spinning at 1000 rpm for 10 min. CD4+CD25− T cells were purified by using CD4+CD25+ T cell isolation kit (Miltenyi Biotec) according to the manufacturer's instructions. Briefly, cells were incubated with Biotin-conjugated antibodies, followed by anti-biotin microbeads and PE-conjugated anti-CD25 antibody for 30 min on ice with gentle shaking. […] For flow cytometry, cells were stained with anti-mouse CD25 Alexa Fluo®488 (eBioscience) and analyzed by using multicolor FACS (ARIA; BD Biosciences) as previously described.^12
A general note: Real-time PCR tracks product formation cycle by cycle.

A further experiment relates to prostate TRAMP-C2 tumors. The experiment can be described thus: In vivo prostate TRAMP-C2 tumor model. The conditions noted are these: systemic delivery i.p. Day 3, 200 mg/kg, FIG. 13.
Another experiment deals with TGF-beta1. The experiment is described as follows: TGF-beta1 expression in CD4+ T cells isolated from B16 melanoma tumors. The class given is in vivo. The conditions noted are these: mice injected i.p., FIG. 14.
A further experiment has as its system B16 melanoma tumor. The experiment can be described thus: In vivo B16 melanoma tumor model. Further details: species or system mice.
The target in experiment [2] is T1, KLF10. The experiment can be described thus: Gel mobility shift assay, KLF10 DNA-binding activity. Further details: GST (N); purchased Novus Biologicals. The method, then:
The identified small molecule compounds were next examined for effects on KLF10 DNA-protein binding.
KLF10 recombinant protein was obtained from Novus Biologicals. Oligonucleotides 5′-[…] End-labeled oligos (1 μmol/L) were annealed in a buffer system with 10 mM Tris, 50 mM NaCl, pH 8.0 by heating at 95° C. for 5 min, then slowly cooled to 65° C. for 30 min incubation, and cooled to room temperature. […] Compounds were incubated with KLF10 in a reaction system for 4 hrs at room temperature, and then Biotin-labeled probes were added for a 1 hr incubation. Binding reactions were electrophoresed for 80 min at 100 volts on 6% polyacrylamide gel in 0.5×TBE. The binding reactions were transferred to nylon membranes at 100 volts for 45 min, and transferred DNA was cross-linked to membrane using an HL-2000 Hybrilinker instrument. Biotin-labeled DNAs were detected by chemiluminescence.

Where [3] appears, read: KLF10 reporter activity, 100 μM, Table 1, read-out: % Inhibition at 100 μM (± sd).
The mark [4] stands for this setting: concentration that inhibited 50% of KLF10 reporter activity, Table 1, read-out: IC50.

Read-outs that look alike come from different tables or passages of the source.

On to `OC1=CN=C(O)/C1=C/Nc1ccccc1O` [#82], for which the inhibition at 100 µM on KLF10 [1] (setting [3]) was 31.9 ± 0.4%.

`c1cc(-c2sc(-c3ccncc3)c(-c3ccncc3)c2-c2ccncc2)ccn1` [GANT58]: the GLI-induced transcription result on GLI was “inhibited”.

On to `Cc1sc2nc(SCC(=O)c3ccc(O)c(O)c3)nc(O)c2c1C` [#15-09], for which the “inhibition of the percentage of CD4+CD25+ T regs” value in the experiment on CD4+CD25− T cells is reported as 29.2%. The “inhibition of Foxp3 expression” value in the experiment on Foxp3 was 90.8%.

On to `Cc1ccc(OCC(=O)c2cc(C)c(O)cc2O)cc1` [#48], for which, in the experiment on prostate TRAMP-C2 tumors, the “prostate TRAMP-C2 tumor inhibition” value is reported as “inhibits”. Besides, in the experiment with TGF-beta1, the “TGF-beta1 expression in CD4+ T cells from tumors” value was “reduced TGF-beta1 expression”. For the same molecule, on KLF10 [1] (100 μM, FIG. 1C), the “induction of luciferase activity by exogenous KLF10 expression blocked” value is on record as 96.6%. The inhibition at 100 µM came out at 54.5 ± 8% on KLF10 [1] (setting [3]) and 54.5 ± 8% on KLF10 [1] (KLF10 reporter activity, 100 μM, Table 2, read-out: % Inhibition 100 μM (± sd)). In addition, the IC50 at KLF10 [1] (KLF10 reporter activity, Table 2, read-out: IC50) worked out at 112 µM; at KLF10 [1] (setting [4]) it was 112 µM; on KLF10 [1] (non-linear regression of dose-response, FIG. 2A-2C, read-out: IC50 on KLF10 transcriptional activity) it was 112 µM. Also, the “B16 melanoma tumor inhibition” value in the experiment on B16 melanoma tumor (local injection Day 0, 20 mg/kg, FIG. 11) is “inhibits”. Moreover, in the experiment with B16 melanoma tumor (systemic delivery i.p. Day 3, 200 mg/kg, FIG. 12), the “B16 melanoma tumor model inhibition” value was “inhibits”. Also, the “inhibition of the percentage of CD4+CD25+ T regs” value in the experiment on CD4+CD25− T cells is on record as 57.4%. Moreover, the “inhibition of Foxp3 expression” value in the experiment on Foxp3 amounted to 84.7%. At KLF10 [2] (8 μM), the inhibition at 8 µM was determined as 11%. For the same molecule, at KLF10 [2] (40 μM), the inhibition at 40 µM was 25%.

Turning to `CN(C)c1ccccc1CN1CCCN(Cc2ccccc2N(C)C)C1c1ccncc1` [GANT61], the GLI-induced transcription result at GLI was “inhibited”.

Regarding `Cc1cc(C(=O)Nc2cnc(O)nc2O)ccc1[N+](=O)[O-]` [#77], at KLF10 [1] (setting [3]), the inhibition at 100 µM was 61.7 ± 2.6%. The concentration for half-maximal inhibition (IC50) at KLF10 [1] (setting [4]) came to 10 µM.

As to `Cc1ccc(C(=O)c2cc(O)c(O)c([N+](=O)[O-])c2)cc1` [Tolcapone, reference compound], on KLF10 [1] (setting [3]), the inhibition at 100 µM was 71.8 ± 0.9%. Moreover, the half-maximal inhibitory concentration (IC50) at KLF10 [1] (setting [4]) was 50 µM.
